The subject of assay [1] is PSN1 cells. Nature of the assay: Inhibition of KRas-mediated phosphorylation of ERK (Cisbio HTRF pERK), PSN1 cells. The assay is classed as cell-based. Particulars: Homo sapiens, PSN1, 3 h. On the procedure: (§1) Inhibition of KRas Phosphorylation of ERK (HTRF) by Exemplary Compounds of Formula (I) Cisbio HTRF Advanced pERK Assay Catalog #64AERPEH • Cells: MKN1, PSN1 • Procedure: • Day 1: Seed 6,000 cells/well -25 µl/well in 384-well white solid bottom plate; RPM1_10% FBS.
(In general: In TR-FRET formats the signal depends on donor and acceptor labels being close together.)

Assay [2] has as its target KRas G12D (Homo sapiens, UniProt P01116, G12D). Nature of the assay: biochemical. The conditions noted are these: Binding to KRas (IC50 nM) G12D, TR-FRET displacement, KRas G12D.
Assay [3] concerns MKN1 cells. Description: Inhibition of KRas-mediated phosphorylation of ERK (Cisbio HTRF pERK), MKN1 cells. The assay is classed as cell-based. The conditions noted are these: Homo sapiens. As for the experimental part:
as §1

Assay [4] deals with KRas G12V (Homo sapiens, UniProt P01116, G12V). Nature of the assay: biochemical. Particulars: Binding to KRas (IC50 nM) G12V, TR-FRET displacement, KRas G12V.
Sequence of KRas G12V (P01116 1-169 isoform P01116-2 G12V): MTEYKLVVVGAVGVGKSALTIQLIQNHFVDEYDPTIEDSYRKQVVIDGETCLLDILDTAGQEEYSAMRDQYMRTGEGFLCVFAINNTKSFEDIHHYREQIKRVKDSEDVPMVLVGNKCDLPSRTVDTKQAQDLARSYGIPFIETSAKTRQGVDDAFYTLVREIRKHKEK
Assay [5] deals with A549 cells. Description: Inhibition of KRas-mediated phosphorylation of ERK (Cisbio HTRF pERK), A549 cells. The assay is classed as cell-based. The conditions noted are these: Homo sapiens, A549, 3 h, 3 hr compound incubation, Cisbio pERK HTRF.
In assay [6] the test system is ASPC1 cells. Description: Inhibition of KRas-mediated phosphorylation of ERK (Cisbio HTRF pERK), ASPC1 cells. The assay is classed as cell-based. Particulars: Homo sapiens, ASPC1, 3 h, AsPC-1 cells, 3 hr compound incubation.
Assay [7] concerns the target KRas G12R (Homo sapiens, UniProt P01116, G12R). Description: biochemical. Particulars: Binding to KRas (IC50 nM) G12R, TR-FRET displacement, KRas G12R.
Assay [8] deals with H727 cells. Description: Inhibition of KRas-mediated phosphorylation of ERK (Cisbio HTRF pERK), H727 cells. Particulars: Homo sapiens, NCI-H727, 3 h, 3 hr compound incubation. The class given is cell-based.
In assay [9] the test system is HCT116 cells. Nature of the assay: Inhibition of KRas-mediated phosphorylation of ERK (Cisbio HTRF pERK), HCT116 cells. The assay is classed as cell-based. The conditions noted are these: Homo sapiens, HCT-116, 3 h, 3 hr compound incubation, Cisbio pERK HTRF.
Setting [10] is: 3 hour compound incubation, Cisbio pERK HTRF.
The mark [11] stands for this setting: MKN-1, 3 hour compound incubation, Cisbio pERK HTRF.
The mark [12] stands for this setting: MKN-1, 3 hr compound incubation.

This passage reports IC50 results from patent US20250368649A1, “TETRAHYDROPYRIDOPYRIMIDINE PAN-KRAS INHIBITORS” (Mirati Therapeutics, Inc., priority 2022, published 2025).

Some results are limits rather than exact numbers.

In general, IC50 refers to the concentration that gives 50% inhibition. The low end stands for inhibition by little substance, the high end for a need for much substance.

Sequence of KRas G12R (P01116 1-169 isoform P01116-2 G12R): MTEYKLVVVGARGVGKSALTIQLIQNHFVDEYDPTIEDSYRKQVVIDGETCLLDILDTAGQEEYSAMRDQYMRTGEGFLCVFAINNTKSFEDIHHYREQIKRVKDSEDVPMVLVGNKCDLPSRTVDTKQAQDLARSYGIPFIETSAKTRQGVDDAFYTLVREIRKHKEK
Sequence of KRas G12D (P01116 1-169 isoform P01116-2 G12D): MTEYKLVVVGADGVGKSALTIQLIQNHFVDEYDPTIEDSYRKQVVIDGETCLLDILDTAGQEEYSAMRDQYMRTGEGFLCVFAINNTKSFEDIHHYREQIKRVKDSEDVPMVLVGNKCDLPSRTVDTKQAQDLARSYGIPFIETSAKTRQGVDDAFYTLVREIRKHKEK

Take `CCc1c(F)ccc2cc(O)cc(N3CCc4c(nc(OC[C@@]56CCCN5C[C@H](F)C6)nc4N4CCCn5nc(N(C)C)cc5C4)C3)c12` [Example 405, 4-(4-(2-(dimethylamino)-7,8-dihydro-4H-pyrazolo[1,5-a][1,4]diazepin-5(6H)-yl)-2-(((2R,7aS)-2-fluorotetrahydro-1H-pyrrolizin-7a(5H)-yl)methoxy)-5,8-dihydropyrido[3,4-d]pyrimidin-7(6H)-yl)-5-ethyl-6-fluoronaphthalen-2-ol]: the IC50 is more than 10000 nM in [1] (setting [10]); 5 nM in assay [2]; 99.9 nM in assay [3] (setting [11]); 9 nM in assay [4]; 273 nM in assay [5]; 339 nM in [6] (Cisbio pERK HTRF). For the same compound, the IC50 in [7] was 3 nM; in assay [8] (Cisbio pERK HTRF) it was 308 nM.

Regarding `CCc1c(F)ccc2cc(O)cc(N3CCc4c(nc(OC[C@@]56CCCN5C[C@H](F)C6)nc4N4C[C@H]5C[C@@H](C4)C(=O)NC5=O)C3)c12` [Example 416, (1R,5S)-7-(7-(8-ethyl-7-fluoro-3-hydroxynaphthalen-1-yl)-2-(((2R,7aS)-2-fluorohexahydro-1H-pyrrolizin-7a-yl)methoxy)-5,6,7,8-tetrahydropyrido[3,4-d]pyrimidin-4-yl)-3,7-diazabicyclo[3.3.1]nonane-2,4-dione], the IC50 in assay [1] (setting [10]) is 4710 nM; in assay [2], 4 nM; in assay [3] (setting [11]), 19.9 nM; in assay [4] it was less than 2 nM; in assay [5], 100 nM; in assay [6] (Cisbio pERK HTRF) it was 486 nM. The IC50 was less than 2 nM in [7] and 346 nM in [8] (Cisbio pERK HTRF).

In the case of `CCc1c(F)ccc2cc(O)cc(N3CCc4c(nc(OC[C@@]56CCCN5C[C@H](F)C6)nc4N4CCCC5(CSC5)C4)C3)c12` [Example 421, 5-ethyl-6-fluoro-4-(2-(((2R,7aS)-2-fluorohexahydro-1H-pyrrolizin-7a-yl)methoxy)-4-(2-thia-6-azaspiro[3.5]nonan-6-yl)-5,6-dihydropyrido[3,4-d]pyrimidin-7(8H)-yl)naphthalen-2-ol], the IC50 is 9630 nM in [1] (setting [10]); 5 nM in assay [2]; 449 nM in [3] (setting [11]); less than 2 nM in assay [4]; 322 nM in assay [5]; 377 nM in assay [6] (Cisbio pERK HTRF). The IC50 in assay [9] was 3260 nM; in [7], 3 nM; in [8] (Cisbio pERK HTRF), 275 nM.

Turning to `CCc1c(F)ccc2cc(O)cc(N3CCc4c(nc(OC[C@@]56CCCN5C[C@H](F)C6)nc4N4Cc5cn(C(=O)N(C)C)nc5CC(C)(C)C4)C3)c12` [Example 424, 5-(7-(8-ethyl-7-fluoro-3-hydroxynaphthalen-1-yl)-2-(((2R,7aS)-2-fluorohexahydro-1H-pyrrolizin-7a-yl)methoxy)-5,6,7,8-tetrahydropyrido[3,4-d]pyrimidin-4-yl)-N,N,7,7-tetramethyl-5,6,7,8-tetrahydropyrazolo[4,3-c]azepine-2(4H)-carboxamide], the IC50 in [1] (setting [10]) was more than 10000 nM; in [2], 31 nM; in assay [3] (setting [11]), 148 nM; in assay [4], 5 nM; in assay [5], 698 nM; in [6] (Cisbio pERK HTRF) it was 926 nM. The IC50 turned out to be 9 nM in [7] and 460 nM in assay [8] (Cisbio pERK HTRF).

On to `CCc1c(F)ccc2cc(O)cc(N3CCc4c(nc(OC[C@]56CCCN5[C@H](COC(=O)N(C)C)CC6)nc4N4CCC[C@@](C)(O)C4)C3)c12` [Example 435, ((3S,7aR)-7a-(((7-(8-ethyl-7-fluoro-3-hydroxynaphthalen-1-yl)-4-((R)-3-hydroxy-3-methylpiperidin-1-yl)-5,6,7,8-tetrahydropyrido[3,4-d]pyrimidin-2-yl)oxy)methyl)hexahydro-1H-pyrrolizin-3-yl)methyl dimethylcarbamate], for which the IC50 in assay [1] (setting [10]) came to 4200 nM; in [2], 2 nM; in assay [3] (setting [11]) it was 40 nM; in assay [4], 3 nM; in assay [5], 164 nM; in [6] (Cisbio pERK HTRF), 172 nM. Moreover, the IC50 in [9] was found to be 215 nM; in assay [7], 2 nM; in assay [8] (Cisbio pERK HTRF), 578 nM.

On to `CCc1c(F)ccc2cc(O)cc(N3CCc4c(nc(OC[C@@]56CCCN5C[C@H](F)C6)nc4N4CCCn5nc(C(=O)N6CC7CN(C8COC8)CC7C6)cc5C4)C3)c12` (some centres unmarked) [Example 503], for which the IC50 in assay [1] (setting [10]) is 3230 nM; in assay [2] it was less than 2 nM; in assay [3] (setting [11]) it was 10.7 nM; in [4], less than 2 nM; in assay [6] (Cisbio pERK HTRF) it was 11 nM; in assay [7], less than 2 nM. Also, half-maximal inhibition in assay [8] (Cisbio pERK HTRF) (IC50) required 19 nM.

On to `O=S1(=O)CCC2(CCCN(c3nc(OC[C@@]45CCCN4C[C@H](F)C5)nc4c3CCN(c3cc(O)cc5cccc(Cl)c35)C4)C2)N1` (stereo partly drawn) [Example 513, 7-(7-(8-chloro-3-hydroxynaphthalen-1-yl)-2-(((2R,7aS)-2-fluorohexahydro-1H-pyrrolizin-7a-yl)methoxy)-5,6,7,8-tetrahydropyrido[3,4-d]pyrimidin-4-yl)-2-thia-1,7-diazaspiro[4.5]decane 2,2-dioxide], for which the IC50 in assay [1] (setting [10]) was 949 nM; in assay [2], 3 nM; in assay [3] (setting [11]), 6 nM; in assay [4], less than 2 nM; in assay [6] (Cisbio pERK HTRF), 27 nM; in assay [7], less than 2 nM. In assay [8] (Cisbio pERK HTRF), this compound had an IC50 of 92 nM.

As to `CCc1c(F)ccc2cc(O)cc(N3CCc4c(nc(OC[C@@]56CCCN5C[C@H](F)C6)nc4N4CCCCn5nc(N)cc5C4)C3)c12` [Example 590, 4-(4-(2-amino-6,7,8,9-tetrahydropyrazolo[1,5-a][1,4]diazocin-5(4H)-yl)-2-(((2R,7aS)-2-fluorotetrahydro-1H-pyrrolizin-7a(5H)-yl)methoxy)-5,8-dihydropyrido[3,4-d]pyrimidin-7(6H)-yl)-5-ethyl-6-fluoronaphthalen-2-ol], the IC50 in assay [1] (setting [10]) is 9600 nM; in assay [2], 4 nM; in assay [3] (setting [11]), 40.8 nM; in assay [4] it was 2 nM; in assay [6] (Cisbio pERK HTRF), 391 nM; in assay [7], less than 2 nM. In assay [8] (Cisbio pERK HTRF), this compound came in with an IC50 of 277 nM.

Regarding `CCc1c(F)ccc2cc(O)cc(N3CCc4c(nc(OC[C@@]56CCCN5C[C@H](F)C6)nc4N4CCCn5ncc(CO)c5C4)C3)c12` [Example 633, 5-ethyl-6-fluoro-4-(2-(((2R,7aS)-2-fluorotetrahydro-1H-pyrrolizin-7a(5H)-yl)methoxy)-4-(3-(hydroxymethyl)-7,8-dihydro-4H-pyrazolo[1,5-a][1,4]diazepin-5(6H)-yl)-5,8-dihydropyrido[3,4-d]pyrimidin-7(6H)-yl)naphthalen-2-ol], the IC50 in [1] (3 hr compound incubation) is more than 10000 nM; in [2], less than 2 nM; in [3] (setting [12]) it was 70.3 nM; in assay [4], less than 2 nM; in assay [6], 48 nM; in assay [7], less than 2 nM. In assay [8], this compound came in with an IC50 of 100 nM.

Take `CCc1c(F)ccc2cc(O)cc(N3CCc4c(nc(OC[C@@]56CCCN5C[C@H](F)C6)nc4N4CCCn5nc(C(=O)N(C6CC6)C6CC6)cc5C4)C3)c12` [Example 637, N,N-dicyclopropyl-5-(7-(8-ethyl-7-fluoro-3-hydroxynaphthalen-1-yl)-2-(((2R,7aS)-2-fluorotetrahydro-1H-pyrrolizin-7a(5H)-yl)methoxy)-5,6,7,8-tetrahydropyrido[3,4-d]pyrimidin-4-yl)-5,6,7,8-tetrahydro-4H-pyrazolo[1,5-a][1,4]diazepine-2-carboxamide]: the IC50 in [1] (3 hr compound incubation) was 6000 nM; in [2] it was less than 2 nM; in assay [3] (setting [12]), 1.4 nM; in [4] it was less than 2 nM; in [6], 11 nM; in assay [7], less than 2 nM. The compound also had an IC50 in [8] of 9 nM.
